How the values were obtained:
FM-MEL-2 [1] = assay: drug sensitivity score (DSS) (DSS (unitless)); higher = more sensitive; conditions: 72 h
Experimental: (§1)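 Validation dose-response testing of selected drugs on NRAS-mutant melanoma patient-derived cells, run in 2D culture and in 3D spheroids (ultra-low attachment plates), in triplicate per concentration. Viability was read by CellTiter-Glo after 72 h. EC50 came from Breeze curve fitting, and DSS was calculated from the curve.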

FM-MEL-6 [2] = assay: as above; conditions: 72 h
Experimental: as §1

FM-MEL-3 [3] = assay: as above; conditions: 72 h
Experimental: as §1

FM-MEL-2 [4] = assay: drug sensitivity score (DSS) (DSS (unitless, 0-50 scale)); higher = more sensitive (stronger viability inhibition); extreme values may be limits of the assay; conditions: 72 h; culture: 2D
Procedure, shortened: (§2)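 Patient-derived melanoma cultures (1000–1500 cells per well) and melanoma cell lines were grown in 2D in 384-well plates holding a 527-compound oncology library. Each compound was dissolved in DMSO or water and tested at five concentrations spanning a 10,000-fold range. After 72 h at 37 °C, viability was read by CellTiter-Glo luminescence. A drug sensitivity score, a modified area-under-curve measure, was derived from dose-response curves fitted in the in-house Breeze software.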

FM-MEL-6 [5] = assay: as above; conditions: 72 h; culture: 2D
Procedure, shortened: as §2

Bowes = assay: as above; conditions: 72 h; culture: 2D
Procedure, shortened: as §2

WM852 = assay: as above; conditions: 72 h; culture: 2D
Procedure, shortened: as §2

SK-MEL-2 = assay: as above; conditions: 72 h; culture: 2D
Procedure, shortened: as §2

FM-MEL-3 [6] = assay: as above; conditions: 72 h; culture: 2D
Procedure, shortened: as §2

WM165 = assay: as above; conditions: 72 h; culture: 2D
Procedure, shortened: as §2

SK-MEL-28 = assay: as above; conditions: 72 h; culture: 2D
Procedure, shortened: as §2

FM-MEL-2 [7] = conditions: 72 h
Experimental: as §1

FM-MEL-6 [8] = conditions: 72 h
Experimental: as §1

FM-MEL-3 [9] = conditions: 72 h
Experimental: as §1

| SMILES | drug sensitivity score (FM-MEL-2 [1]; culture: 2D) | drug sensitivity score (FM-MEL-2 [1]; culture: 3D spheroid) | drug sensitivity score (FM-MEL-6 [2]; culture: 2D) | drug sensitivity score (FM-MEL-6 [2]; culture: 3D spheroid) | drug sensitivity score (FM-MEL-3 [3]; culture: 2D) | drug sensitivity score (FM-MEL-3 [3]; culture: 3D spheroid) | drug sensitivity score (FM-MEL-2 [4]) | drug sensitivity score (FM-MEL-6 [5]) | drug sensitivity score (Bowes) | drug sensitivity score (WM852) | drug sensitivity score (SK-MEL-2) | drug sensitivity score (FM-MEL-3 [6]) | drug sensitivity score (WM165) | drug sensitivity score (SK-MEL-28) | EC50 (cell viability) (FM-MEL-2 [7]; culture: 2D) [nM] | EC50 (cell viability) (FM-MEL-2 [7]; culture: 3D spheroid) [nM] | EC50 (cell viability) (FM-MEL-6 [8]; culture: 2D) [nM] | EC50 (cell viability) (FM-MEL-6 [8]; culture: 3D spheroid) [nM] | EC50 (cell viability) (FM-MEL-3 [9]; culture: 2D) [nM] | EC50 (cell viability) (FM-MEL-3 [9]; culture: 3D spheroid) [nM] |
| --- | --- | --- | --- | --- | --- | --- | --- | --- | --- | --- | --- | --- | --- | --- | --- | --- | --- | --- | --- | --- |
| CNc1ncc2cc(-c3cc(NC(=O)NCCC(C)(C)C)c(F)cc3C)c(C)nc2n1 | 20.6 | 20.8 | 11.3 | 16.9 | 24.5 | 26.6 | 19.9 | 14.4 | 7.4 | 10.2 | 15.2 | 25.4 | 25.4 | 20.3 | 59.3 | 59.8 | 187 | 97.3 | 83.3 | 64.9 |
| O=C(Nc1ccc2[nH]nc(-c3ccncc3)c2c1)[C@@H]1CCN(CC(=O)N2CCN(c3ccc(-c4ncccn4)cc3)CC2)C1 | 17.7 | 25 | 11.2 | 17.2 | 22.5 | 26.2 | 20.8 | 12.7 | 1.3 | 8.2 | 15.6 | 22.8 | 21.2 | 21.8 | 206 | 54.5 | 210 | 120 | 97.1 | 69 |
| C=CCn1c(=O)c2cnc(Nc3ccc(N4CCN(C)CC4)cc3)nc2n1-c1cccc(C(C)(C)O)n1 [AZD1775] | 5.8 | 4.5 | 1.7 | 0 | 14 | 15.6 | 7.6 | 12.5 | 15.2 | 14.5 | 11.3 | 12.8 | 13.1 | 4.3 | 378 | 364 | 1800 | > 10000 | 242 | 257 |
| COc1ccc(-c2ccc3c(N4CCOC[C@@H]4C)nc(N4CCOC[C@@H]4C)nc3n2)cc1CO [AZD8055] | 18.2 | 18.1 | 11.3 | 13.4 | 20.3 | 26.2 | 15.6 | 17.3 | 20.1 | 15 | 13.9 | 14.2 | 21.7 | 16.4 | 60.6 | 54.1 | 94.2 | 66.2 | 72.8 | 50.7 |
| Cn1cnc2c(F)c(Nc3ccc(Br)cc3F)c(C(=O)NOCCO)cc21 [Binimetinib] | 11 | 12.9 | 9.4 | 15.7 | 19.5 | 21.1 | 8.7 | 7.7 | 0 | 0.4 | 6.3 | 13.7 | 9.5 | 8.8 | 40.3 | 28.8 | 34.3 | 15.7 | 7.2 | 10.1 |
| O=C(c1ccc(F)c(F)c1Nc1ccc(I)cc1F)N1CC(O)([C@@H]2CCCCN2)C1 [Cobimetinib] | 20.2 | 21.8 | 10.4 | 19.5 | 20.7 | 26.6 | 15.5 | 9.4 | 0.3 | 4.3 | 11.5 | 20.7 | 21.3 | 21.3 | 5.7 | 4 | 28.1 | 8.1 | 12.5 | 6.2 |
| Cn1c(=O)n(-c2ccc(C(C)(C)C#N)cc2)c2c3cc(-c4cnc5ccccc5c4)ccc3ncc21 [Dactolisib] | 13.5 | 14.6 | 7.4 | 10.1 | 13.7 | 22.9 | 12.5 | 15.1 | 12.8 | 10.7 | 9.9 | 15.1 | 17.6 | 13.5 | 15.2 | 12.1 | 26.9 | 13.1 | 22.6 | 7.4 |
| CC(C)NC(=O)COc1cccc(-c2nc(Nc3ccc4[nH]ncc4c3)c3ccccc3n2)c1 [KD025] | 21.7 | 24.2 | 0 | 0 | 0 | 4.5 | 18.9 | 3 | 2.6 | 7.5 | 0 | 13 | 5.4 | 1.6 | 55.7 | 42.8 | > 5000 | > 5000 | > 5000 | 440 |
| Cc1cn(-c2cc(NC(=O)c3ccc(C)c(Nc4nccc(-c5cccnc5)n4)c3)cc(C(F)(F)F)c2)cn1 [Nilotinib] | 10.9 | 16.7 | 0 | 0 | 9.5 | 15.1 | 12.4 | 2.1 | 0 | 0.8 | 0 | 8.5 | 0 | 0 | 869 | 270 | > 10000 | > 10000 | 940 | 266 |
| COc1ncc(-c2ccc3nccc(-c4ccnnc4)c3c2)cc1NS(=O)(=O)c1ccc(F)cc1F [Omipalisib] | 16.9 | 17.5 | 14.9 | 19 | 24.1 | 27.3 | 15.3 | 14.7 | 16.9 | 13.8 | 9.5 | 17.9 | 15.5 | 16.3 | 5.5 | 4 | 5.5 | 4.4 | 7.3 | 5.2 |
| C[C@]1(c2nc3c(C(N)=O)cccc3[nH]2)CCCN1 [Veliparib] |  |  |  |  |  |  | 0.7 | 0 | 0 | 0 | 0 | 0.6 | 0.9 | 0.2 |  |  |  |  |  |  |
| CCCS(=O)(=O)Nc1ccc(F)c(C(=O)c2c[nH]c3ncc(-c4ccc(Cl)cc4)cc23)c1F [Vemurafenib] |  |  |  |  |  |  | 0 | 0 | 2.4 | 0 | 0 | 0 | 10.2 | 13.5 |  |  |  |  |  |  |
| CC1(C)CCC(CN2CCN(c3ccc(C(=O)NS(=O)(=O)c4ccc(NCC5CCOCC5)c([N+](=O)[O-])c4)c(Oc4cnc5[nH]ccc5c4)c3)CC2)=C(c2ccc(Cl)cc2)C1 [Venetoclax] |  |  |  |  |  |  | 0 | 0 | 0 | 0 | 0 | 3.6 | 0 | 0 |  |  |  |  |  |  |
| O=C(/C=C\n1cnc(-c2cc(C(F)(F)F)cc(C(F)(F)F)c2)n1)NNc1ccccn1 [Verdinexor] |  |  |  |  |  |  | 4.2 | 4 | 4.1 | 2 | 2.3 | 5.3 | 9.3 | 5 |  |  |  |  |  |  |
| CCCCOc1nc(N)c2c(n1)N(Cc1cccc(CN3CCCC3)c1)CC(=O)N2 [Vesatolimod] |  |  |  |  |  |  | 0 | 0.8 | 0 | 0 | 0 | 0 | 0 | 0 |  |  |  |  |  |  |
| COc1cccc(-c2ccc(NC(=O)C3=C(C(=O)O)CCC3)c(F)c2)c1 [Vidofludimus] |  |  |  |  |  |  | 0 | 0 | 0.4 | 0 | 0 | 0.3 | 1.3 | 0 |  |  |  |  |  |  |
| CC[C@]1(O)C[C@@H]2CN(CCc3c([nH]c4ccccc34)[C@@](C(=O)OC)(c3cc4c(cc3OC)N(C)[C@H]3[C@@](O)(C(=O)OC)[C@H](OC(C)=O)[C@]5(CC)C=CCN6CC[C@]43[C@@H]65)C2)C1 [Vinblastine] |  |  |  |  |  |  | 4.5 | 3.9 | 21.8 | 13.8 | 19.3 | 11.9 | 19.9 | 8.9 |  |  |  |  |  |  |
| CC[C@]1(O)C[C@H]2CN(CCc3c([nH]c4ccccc34)[C@@](C(=O)OC)(c3cc4c(cc3OC)N(C=O)[C@H]3[C@@](O)(C(=O)OC)[C@H](OC(C)=O)[C@]5(CC)C=CCN6CC[C@]43[C@@H]65)C2)C1 [Vincristine] |  |  |  |  |  |  | 4.5 | 7.6 | 18.7 | 16.5 | 18.5 | 12.6 | 20.2 | 10.1 |  |  |  |  |  |  |
| CC[C@]12C=CCN3CC[C@@]4(c5cc([C@@]6(C(=O)OC)C[C@@H]7C[C@@H](C(C)(F)F)CN(Cc8c6[nH]c6ccccc86)C7)c(OC)cc5N(C)[C@H]4[C@@](O)(C(=O)OC)[C@@H]1OC(C)=O)[C@@H]32 [Vinflunine] |  |  |  |  |  |  | 1 | 3.8 | 3.6 | 3.5 | 2.7 | 3.2 | 4.6 | 3.5 |  |  |  |  |  |  |
| CCC1=C[C@@H]2CN(C1)Cc1c([nH]c3ccccc13)[C@@](C(=O)OC)(c1cc3c(cc1OC)N(C)[C@H]1[C@@](O)(C(=O)OC)[C@H](OC(C)=O)[C@]4(CC)C=CCN5CC[C@]31[C@@H]54)C2 [Vinorelbine] |  |  |  |  |  |  | 7.7 | 23.3 | 31.6 | 23.1 | 25.6 | 12.5 | 28.8 | 11 |  |  |  |  |  |  |
| CS(=O)(=O)c1ccc(C(=O)Nc2ccc(Cl)c(-c3ccccn3)c2)c(Cl)c1 [Vismodegib] |  |  |  |  |  |  | 0 | 0 | 0 | 0 | 0 | 0 | 0 | 0 |  |  |  |  |  |  |
| CNC(=O)c1cccc(-c2ccc3c(N4CCOC[C@@H]4C)nc(N4CCOC[C@@H]4C)nc3n2)c1 [Vistusertib] |  |  |  |  |  |  | 11 | 12.6 | 14 | 8.5 | 8.8 | 11.6 | 12.5 | 12.1 |  |  |  |  |  |  |
| CC[C@@H]1C(=O)N(C)c2cnc(Nc3ccc(C(=O)N[C@H]4CC[C@H](N5CCN(CC6CC6)CC5)CC4)cc3OC)nc2N1C(C)C [Volasertib] |  |  |  |  |  |  | 2.6 | 3.7 | 17.5 | 14.9 | 8.1 | 6.5 | 13.3 | 3.1 |  |  |  |  |  |  |
| O=C(CCCCCCC(=O)Nc1ccccc1)NO [Vorinostat] |  |  |  |  |  |  | 5.6 | 8.4 | 0.7 | 4.4 | 6.1 | 9.2 | 9.1 | 7.9 |  |  |  |  |  |  |
| Oc1nc(-c2ccc(C(F)(F)F)cc2)nc2c1CSCC2 [XAV-939] |  |  |  |  |  |  | 0 | 0 | 0 | 0 | 0 | 0 | 0 | 0 |  |  |  |  |  |  |
| FC(F)c1nc2ccccc2n1-c1nc(N2CCOCC2)nc(N2CCOCC2)n1 [ZSTK474] |  |  |  |  |  |  | 10.8 | 8.7 | 7 | 7 | 4.6 | 7.2 | 9 | 12.2 |  |  |  |  |  |  |
| Cc1sc2c(c1C)C(c1ccc(Cl)cc1)=N[C@@H](CC(=O)NCCCCNC(=O)COc1cccc3c1C(=O)N(C1CCC(=O)NC1=O)C3=O)c1nnc(C)n1-2 (stereo partly specified) [dBET1] |  |  |  |  |  |  | 3.5 | 4.6 | 9.1 | 0 | 0 | 7.1 | 10.3 | 3 |  |  |  |  |  |  |

From the supplement of paper PMC8633005
